{"source": "patent US11179348B2", "about": "“Combination comprising pterostilbene for the treatment of cancer” (FUNDACIÓN UNIVERSIDAD CATÓLICA DE VALENCIA SAN VICENTE …, priority 2015, dated 2021)", "key": {"[1]": {"tested_on": "human breast, lung, liver, prostate, ovarian, and colorectal cancer cell lines", "test": "Effect of Pter on growth or viability in vitro of breast, lung, liver, prostate, ovarian and colorectal tumor cell lines", "assay_type": "cell-based", "settings": "any of the tumor cell lines used (FIG. 15); 15 μM Pter×60 min every 24 h", "source_text": "FIG. 15. In vivo effect of Pter on human breast, lung, liver, prostate, ovarian, and colorectal cancer growth. […] For the lower and maximum Pter dose used, in each case, only the endpoint of the treatment period is shown.\n(§1) Human A2058, MeWo and MelJuso melanoma cells, and mouse AtT-20 pituitary corticotroph tumor cells were from the American Type Culture Collection (ATCC). Human HEMa-LP epidermal melanocytes were from Life Technologies (Grand Island, N.Y.). Human MDA-MB-231 (triple negative: ER−, PR−, HER2−) and MCF-7 (ER+, PR+, HER2−) breast adenocarcinoma, A549 lung adenocarcinoma (NSCLC), HepG2 hepatocellular carcinoma, LNCaP (AR+) and PC-3 (AR−) prostate adenocarcinoma, SK-OV-3 epithelial ovarian carcinoma, and HT-29 and Caco-2 colorectal carcinoma cells were from the American Type Culture Collection. Cells were grown in Dulbecco's modified Eagle's medium (DMEM) (Invitrogen, San Diego, Calif.), pH 7.4, supplemented with 10% heat-inactivated FCS (Biochrom KG, Berlin, Germany), 100 units/ml penicillin and 100 μg/ml streptomycin. […] Cell numbers were determined using a Coulter Counter (Coulter Electronic Inc., Miami, Fla.). […] Cellular viability was assessed as previously reported (Mena, S. et al. Clin Cancer Res 13, 2658-2666 (2007)), by measuring trypan blue exclusion and leakage of lactate dehydrogenase activity."}, "HT-29 human colon cancer": {"tested_on": "HT-29 human colon cancer", "settings": "20 μM Pter, 24 h, in vitro; cited from earlier work"}, "B16-F1 cells": {"tested_on": "B16-F1 cells", "test": "Effect of Pter on B16-F1 cell growth or viability in vitro", "assay_type": "cell-based, murine", "settings": "15 μM Pter×60 min every 24 h", "description": "FIG. 14. In vivo effect of Pter on tumor growth (A) and on corticosterone (B) and ACTH (C) levels in plasma of murine B16-F1 melanoma-bearing mice. Pter (30 mg/kg) was administered i.v. every 24 h for a period of 15 days, starting 3 days after tumor inoculation.\nas §1"}, "HepG2 cells": {"tested_on": "HepG2 cells", "test": "GSH levels and glutathione- and oxidative stress-related enzyme activities in HepG2 cells growing in vivo", "set-up": "species or system human", "settings": "HepG2, in vivo Pter, day 35", "description": "To measure enzyme activity, isolated tumor cells were homogenized in 0.1 M phosphate buffer (pH 7.2) at 4° C. GCL and GSS activities were measured as described previously (Obrador, E. et al. Hepatology 35, 74-81 (2002)). GPX (selenium dependent) activity was measured as described by Flohé and Gunzler (Flohe, L. & Gunzler, W. A. Methods Enzymol 105, 114-121 (1984)) using H2O2 as a substrate. GSR activity was determined as described by Akerboom and Sies (Akerboom, T. P. et al, Bull Eur Physiopathol Respir 17 Suppl, 221-227 (1981)). GGT activity was measured as described previously (Obrador, E. et al. Hepatology 35, 74-81 (2002)). GST activity was measured using an assay kit from Sigma. TXNRD activity, defined by the concentration of sodium-lipoate (disulfide) reduced to dehydrolipoate (dithiol) per milligram protein, was measured as previously described (Javvadi, P. et al. Cancer Res 70, 1941-1950 (2010)). SOD activity was measured as described by Flohé and Otting (Flohe, L. & Otting, F. Methods Enzymol 105, 93-104 (1984).) using 2 mM cyanide in the assay medium to distinguish mangano-type enzyme (SOD2) from the cuprozinc type (SOD1). CAT activity was analyzed as described by Aebi (Aebi, H. Methods Enzymol 105, 121-126 (1984)). NOX activity was measured by chemiluminescence following the methodology of Wind et al. (Wind, S. et al. Comparative pharmacology of chemically distinct NADPH oxidase inhibitors. Br J Pharmacol 161, 885-898 (2010)). Protein concentration was determined with the Pierce BCA protein assay (Fisher Scientific, Waltham, Mass.).\nGSH, GSSG, NADP^+ and NADPH Determination.\nGSH and GSSG were determined, following procedures previously described (Obrador, E. et al. PLoS One 9, e96466 (2014)), by LC/MS using the same equipment described above for pterostilbene determination. Cell processing was performed according to published methodology, where rapid N-ethylmaleimide derivatization was used to prevent GSH auto-oxidation (Asensi, M. et al. Anal Biochem 217, 323-328 (1994)). NADP^+ and NADPH were quantitated using an assay kit from Sigma (St. Louis, Mo.).\nIsolation of Tumor Cells from Mouse Xenografts Using Enzymatic Digestion and a double Ficoll gradient.\nTo maximize the amount of isolated cells, avoiding the use of RFP-transfected cells and subsequent laser microdissection, an alternative methodology was set up. To maximize cell yield and viability the following combination of enzymes was used: collagenase III (200 U/ml; Sigma-Aldrich), DNase I (200 U/ml; Sigma-Aldrich) and trypsin (5 mg/ml; Invitrogen), and a non-enzymatic dissociation buffer (NEDB, Invitrogen). Briefly, mice were killed, and tumors were removed (avoiding skin, muscle and fat) into cold culture media and processed immediately. The tumors were minced into 1-3 mm fragments, which were then incubated with the dissociation solution (see above) for 30 min at 37° C. The tumor fragments were mixed up and down every 10 min using a […] micropipette with a tip cut to a diameter adapted to tissue fragment size. After each incubation period, the fragments were filtered through a […] nylon mesh cell strainer (BD Biosciences, San Diego, Calif., USA). The released cells were centrifuged at 1200 r.p.m. for 2 min and stored in cold CO2-independent medium with 30% FCS at […]. Fresh dissociation solution was added to the remaining tissue fragments for 30 min. Dissociation was stopped when no additional cells were released. The fragments were pushed through a sieve and all cells from all incubation periods were pooled and counted.\nThe dissociated cells were layered onto a double Ficoll gradient (Histopaque; Sigma-Aldrich; densities 1.077 and 1.119) and spun at 700 g for 30 min at room temperature. Cells removed from both interfaces were pooled and washed two times in CO2-independent medium and stored at 4° C. Debris and red blood cell elimination was improved with the dual-density gradient. […]"}}}
{"smiles": "COc1cc(/C=C/c2ccc(O)cc2)cc(OC)c1", "note": "[Pter, trans-3,5-dimethoxy-4′-hydroxystilbene]", "values": [{"measurement": "cell growth or viability in vitro", "setting": "[1]", "value": "did not affect"}, {"measurement": "decrease in tumor cell viability", "setting": "HT-29 human colon cancer", "value": "~10", "unit": "%"}, {"measurement": "cell growth or viability in vitro", "setting": "B16-F1 cells", "value": "did not affect"}, {"measurement": "CAT", "setting": "HepG2 cells", "value": "1.1 ± 0.3", "unit": "mU/10^6 cells"}, {"measurement": "GCL", "setting": "HepG2 cells", "value": "50 ± 15", "unit": "mU/10^6 cells"}, {"measurement": "GSH", "setting": "HepG2 cells", "value": "8.5 ± 2.6", "unit": "nmol/10^6 cells"}, {"measurement": "GSS", "setting": "HepG2 cells", "value": "4.8 ± 0.9", "unit": "mU/10^6 cells"}, {"measurement": "GSSG", "setting": "HepG2 cells", "value": "0.3 ± 0.1", "unit": "nmol/10^6 cells"}, {"measurement": "SOD1", "setting": "HepG2 cells", "value": "0.1 ± 0.02", "unit": "U/10^6 cells"}, {"measurement": "SOD2", "setting": "HepG2 cells", "value": "0.02 ± 0.01", "unit": "U/10^6 cells"}]}
